Experimental data published in PubChem BioAssay (NCI).
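Results reflect a 48-hour exposure of cells in 96-well plates to compound at five concentrations. TGI is the concentration that stops growth completely.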

Experiments:
Assay in all cases: NCI tumour cell line growth inhibition, 48 h
DLD-1 colon = test system: DLD-1 colon
SF-268 CNS = test system: SF-268 CNS
HOP-92 NSCLC = test system: HOP-92 NSCLC
A498 renal = test system: A498 renal
SN12C renal = test system: SN12C renal
UACC-62 melanoma = test system: UACC-62 melanoma
NCI-H522 lung = test system: NCI-H522 lung
RPMI-8226 leukemia = test system: RPMI-8226 leukemia
UACC-257 melanoma = test system: UACC-257 melanoma
LOX IMVI melanoma = test system: LOX IMVI melanoma
NCI-H23 lung = test system: NCI-H23 lung
SK-MEL-28 melanoma = test system: SK-MEL-28 melanoma
SK-MEL-2 melanoma = test system: SK-MEL-2 melanoma
KM12 colon = test system: KM12 colon
A549 NSCLC = test system: A549 NSCLC
786-0 renal = test system: 786-0 renal
OVCAR-5 ovarian = test system: OVCAR-5 ovarian
ACHN renal = test system: ACHN renal
DMS 114 small cell lung = test system: DMS 114 small cell lung
OVCAR-8 ovarian = test system: OVCAR-8 ovarian
M19-MEL melanoma = test system: M19-MEL melanoma
LXFL 529 NSCLC = test system: LXFL 529 NSCLC
K-562 leukemia = test system: K-562 leukemia
U251 CNS = test system: U251 CNS
EKVX NSCLC = test system: EKVX NSCLC
KM20L2 colon = test system: KM20L2 colon
XF 498 CNS = test system: XF 498 CNS
SF-295 CNS = test system: SF-295 CNS
TK-10 renal = test system: TK-10 renal
RXF-631 renal = test system: RXF-631 renal
SK-OV-3 ovarian = test system: SK-OV-3 ovarian
NCI-H226 lung = test system: NCI-H226 lung
RXF 393 renal = test system: RXF 393 renal
SNB-78 CNS = test system: SNB-78 CNS
UO-31 renal = test system: UO-31 renal
NCI-H460 lung = test system: NCI-H460 lung
SNB-19 CNS = test system: SNB-19 CNS
CCRF-CEM leukemia = test system: CCRF-CEM leukemia
OVCAR-4 ovarian = test system: OVCAR-4 ovarian
HT29 colon = test system: HT29 colon
IGROV1 ovarian = test system: IGROV1 ovarian
HCC-2998 colon = test system: HCC-2998 colon
HOP-18 NSCLC = test system: HOP-18 NSCLC
MOLT-4 leukemia = test system: MOLT-4 leukemia
HCT-116 colon = test system: HCT-116 colon
MALME-3M melanoma = test system: MALME-3M melanoma
OVCAR-3 ovarian = test system: OVCAR-3 ovarian
HOP-62 NSCLC = test system: HOP-62 NSCLC
M14 melanoma = test system: M14 melanoma
SF-539 CNS = test system: SF-539 CNS
SW-620 colon = test system: SW-620 colon
HL-60(TB) leukemia = test system: HL-60(TB) leukemia
SR leukemia = test system: SR leukemia
HCT-15 colon = test system: HCT-15 colon
CAKI-1 renal = test system: CAKI-1 renal
SK-MEL-5 melanoma = test system: SK-MEL-5 melanoma

Cc1ncc(CCl)c2c1OC(C)(C)OC2
TGI (DLD-1 colon): > 100 µM | TGI (SF-268 CNS): 53.6 µM | TGI (HOP-92 NSCLC): 73.1 µM | TGI (A498 renal): > 100 µM | TGI (SN12C renal): > 100 µM | TGI (UACC-62 melanoma): > 100 µM | TGI (NCI-H522 lung): 32.6 µM | TGI (RPMI-8226 leukemia): > 100 µM | TGI (UACC-257 melanoma): > 100 µM | TGI (LOX IMVI melanoma): 33.5 µM | TGI (NCI-H23 lung): > 100 µM | TGI (SK-MEL-28 melanoma): 56.6 µM | TGI (SK-MEL-2 melanoma): > 100 µM | TGI (KM12 colon): > 100 µM | TGI (A549 NSCLC): > 100 µM | TGI (786-0 renal): 41.2 µM | TGI (OVCAR-5 ovarian): 40.3 µM | TGI (ACHN renal): 45.4 µM | TGI (DMS 114 small cell lung): > 100 µM | TGI (OVCAR-8 ovarian): > 100 µM | TGI (M19-MEL melanoma): > 100 µM | TGI (LXFL 529 NSCLC): > 100 µM | TGI (K-562 leukemia): > 100 µM | TGI (U251 CNS): 27.5 µM | TGI (EKVX NSCLC): 41.4 µM | TGI (KM20L2 colon): > 100 µM | TGI (XF 498 CNS): > 100 µM | TGI (SF-295 CNS): > 100 µM | TGI (TK-10 renal): > 100 µM | TGI (RXF-631 renal): 73.9 µM | TGI (SK-OV-3 ovarian): > 100 µM | TGI (NCI-H226 lung): > 100 µM | TGI (RXF 393 renal): 29.5 µM | TGI (SNB-78 CNS): > 100 µM | TGI (UO-31 renal): > 100 µM | TGI (NCI-H460 lung): > 100 µM | TGI (SNB-19 CNS): > 100 µM | TGI (CCRF-CEM leukemia): > 100 µM | TGI (OVCAR-4 ovarian): 28.4 µM | TGI (HT29 colon): > 100 µM | TGI (IGROV1 ovarian): > 100 µM | TGI (HCC-2998 colon): > 100 µM | TGI (HOP-18 NSCLC): 36 µM | TGI (MOLT-4 leukemia): > 100 µM | TGI (HCT-116 colon): 65.8 µM | TGI (MALME-3M melanoma): 37 µM | TGI (OVCAR-3 ovarian): 69.7 µM | TGI (HOP-62 NSCLC): > 100 µM | TGI (M14 melanoma): > 100 µM | TGI (SF-539 CNS): > 100 µM | TGI (SW-620 colon): 34 µM | TGI (HL-60(TB) leukemia): 65.2 µM

CC1=C(C(=O)CC(=O)C(=O)Nc2cccc(Cl)c2C)Sc2ccccc2N1
TGI (DLD-1 colon): > 100 µM | TGI (SF-268 CNS): > 100 µM | TGI (HOP-92 NSCLC): > 100 µM | TGI (SN12C renal): > 100 µM | TGI (UACC-62 melanoma): > 100 µM | TGI (NCI-H522 lung): > 100 µM | TGI (RPMI-8226 leukemia): > 100 µM | TGI (UACC-257 melanoma): > 100 µM | TGI (LOX IMVI melanoma): > 100 µM | TGI (NCI-H23 lung): > 100 µM | TGI (SK-MEL-28 melanoma): > 100 µM | TGI (SK-MEL-2 melanoma): > 100 µM | TGI (KM12 colon): > 100 µM | TGI (A549 NSCLC): > 100 µM | TGI (786-0 renal): > 100 µM | TGI (OVCAR-5 ovarian): > 100 µM | TGI (ACHN renal): > 100 µM | TGI (DMS 114 small cell lung): > 100 µM | TGI (OVCAR-8 ovarian): > 100 µM | TGI (M19-MEL melanoma): > 100 µM | TGI (SR leukemia): > 100 µM | TGI (HCT-15 colon): > 100 µM | TGI (LXFL 529 NSCLC): > 100 µM | TGI (K-562 leukemia): > 100 µM | TGI (U251 CNS): > 100 µM | TGI (EKVX NSCLC): > 100 µM | TGI (XF 498 CNS): > 100 µM | TGI (SF-295 CNS): > 100 µM | TGI (TK-10 renal): > 100 µM | TGI (RXF-631 renal): > 100 µM | TGI (SK-OV-3 ovarian): > 100 µM | TGI (NCI-H226 lung): > 100 µM | TGI (RXF 393 renal): > 100 µM | TGI (SNB-78 CNS): > 100 µM | TGI (UO-31 renal): > 100 µM | TGI (NCI-H460 lung): > 100 µM | TGI (CAKI-1 renal): > 100 µM | TGI (SNB-19 CNS): > 100 µM | TGI (SK-MEL-5 melanoma): > 100 µM | TGI (CCRF-CEM leukemia): > 100 µM | TGI (OVCAR-4 ovarian): > 100 µM | TGI (HT29 colon): > 100 µM | TGI (IGROV1 ovarian): > 100 µM | TGI (HCC-2998 colon): > 100 µM | TGI (HOP-18 NSCLC): > 100 µM | TGI (MOLT-4 leukemia): > 100 µM | TGI (HCT-116 colon): > 100 µM | TGI (MALME-3M melanoma): > 100 µM | TGI (OVCAR-3 ovarian): > 100 µM | TGI (HOP-62 NSCLC): > 100 µM | TGI (M14 melanoma): > 100 µM | TGI (SF-539 CNS): > 100 µM | TGI (SW-620 colon): > 100 µM | TGI (HL-60(TB) leukemia): > 100 µM
